Assay results published in patent US20220324835A1 (Nurix Therapeutics, Inc., priority 2018, published 2022).

How the values were obtained:
Cbl-b [1] = target: T1, Cbl-b (Homo sapiens, UniProt Q13191); test: Cbl-b inhibition assay (Cbl-b activity assay, FRET, Biological Example 1; 100 mM NaCl, 60 nM Src kinase); type: biochemical; conditions: upper bound stated in text lists; read-out: IC50 values in the Cbl-b inhibition assay of Biological Example 1
In short: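 Here, the E2 UbcH5B, irreversibly linked to Bodipy-fluorescein ubiquitin, binds Cbl-b once Src kinase phosphorylates it; Cbl-b carries an N-terminal biotinylated Avi-tag captured by streptavidin-terbium. An absent FRET signal indicates inhibition.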

T-cell [2] = test: IL-2 secretion from T-cells co-stimulated with anti-CD3 and anti-CD28 antibody (Biological Example 2); type: cell-based, human; conditions: Homo sapiens, T-cell, fold change over baseline (anti-CD3/anti-CD28 stimulated T-cells without inhibitor), read-out: IL-2 secretion Anti-CD3/Anti-CD28 stimulation; for fold induction at 0.3 µM: 0.3 μM Cbl-b inhibitor; for fold induction at 1 µM: 1 μM Cbl-b inhibitor
In short: (§1)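 Values are fold-change over baseline: readings (IL-2 release, CD25 staining) from inhibitor-treated T-cells divided against untreated cells […]. No detailed procedure stated.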

T-cell [3] = test: IL-2 secretion from T-cells stimulated with anti-CD3 antibody alone (Biological Example 2); type: cell-based, human; conditions: Homo sapiens, T-cell; 1 μM Cbl-b inhibitor; fold change over baseline (anti-CD3/anti-CD28 stimulated T-cells without inhibitor); read-out: IL-2 secretion Anti-CD3 stimulation
T-cell [4] = test: CD25 cell surface staining on T-cells co-stimulated with anti-CD3 and anti-CD28 antibody (Biological Example 2); type: cell-based, human; conditions: Homo sapiens, T-cell, fold change over baseline (anti-CD3/anti-CD28 stimulated T-cells without inhibitor), read-out: CD25 staining Anti-CD3/Anti-CD28 stimulation; for fold induction at 0.3 µM: 0.3 μM Cbl-b inhibitor; for fold induction at 1 µM: 1 μM Cbl-b inhibitor
In short: as §1

T-cell [5] = test: CD25 cell surface staining on T-cells stimulated with anti-CD3 antibody alone (Biological Example 2); type: cell-based, human; conditions: Homo sapiens, T-cell; 1 μM Cbl-b inhibitor; fold change over baseline (anti-CD3/anti-CD28 stimulated T-cells without inhibitor); read-out: CD25 staining Anti-CD3 stimulation
Cbl-b [6] = target: T1, Cbl-b; test: Cbl-b activity assay (Cbl-b inhibition assay), TR-FRET of Cbl-b interaction with UbcH5B-Ub; type: biochemical; conditions: assay buffer with 100 mM NaCl, 60 nM Src kinase; read-out: Cbl-b activity IC50
In short: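 Compound-treated Cbl-b was incubated 1.5 h with Src kinase (60 nM final; 30 nM for asterisked values, which also used 50 mM instead of 100 mM NaCl), 1 mM ATP and 5 mM MgCl2. Binding to fluorescent Ub-loaded UbcH5B (C85K mutant) was then read by TR-FRET after 1 h more.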

T1 sequence (Q13191 36-427): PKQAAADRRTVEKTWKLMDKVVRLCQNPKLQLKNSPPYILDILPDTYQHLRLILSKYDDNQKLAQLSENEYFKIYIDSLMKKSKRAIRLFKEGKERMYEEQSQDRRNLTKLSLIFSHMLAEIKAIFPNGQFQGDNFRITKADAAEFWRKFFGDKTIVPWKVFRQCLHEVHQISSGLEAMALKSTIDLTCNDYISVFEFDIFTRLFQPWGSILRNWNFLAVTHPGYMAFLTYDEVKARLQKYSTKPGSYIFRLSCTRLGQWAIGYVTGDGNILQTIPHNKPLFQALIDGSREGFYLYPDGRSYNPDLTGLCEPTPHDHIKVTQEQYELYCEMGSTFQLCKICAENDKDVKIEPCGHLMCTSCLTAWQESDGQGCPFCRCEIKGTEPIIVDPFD

Row | SMILES | IC50 (Cbl-b [1]) [nM] | fold induction at 0.3 µM (T-cell [2]) | fold induction at 1 µM (T-cell [2]) | fold induction at 1 µM (T-cell [3]) | fold induction at 0.3 µM (T-cell [4]) | fold induction at 1 µM (T-cell [4]) | fold induction at 1 µM (T-cell [5]) | IC50 (Cbl-b [6]) [nM]
1 | Cn1cnnc1CC1(c2cccc(NC(=O)c3cc(CN4CCCCC4)nc(C4CC4)n3)c2)COC1 [Example 589, 2-Cyclopropyl-N-(3-(3-((4-methyl-4H-1,2,4-triazol-3-yl)methyl)oxetan-3-yl)phenyl)-6-(piperidin-1-ylmethyl)pyrimidine-4-carboxamide] | ≤ 100 | > 7.5 | > 7.5 | > 0.201 | > 1.76 | > 1.76 | > 1 | < 100
2 | CC(c1cc(C(=O)Nc2cccc(C3(Cc4nncn4C)COC3)c2)nc(C2CC2)n1)N1CCCC1 (stereo not drawn) [Example 593, 2-Cyclopropyl-N-(3-(3-((4-methyl-4H-1,2,4-triazol-3-yl)methyl)oxetan-3-yl)phenyl)-6-(l-(pyrrolidin-1-yl)ethyl)pyrimidine-4-carboxamide] | ≤ 100 | > 7.5 | > 7.5 | > 0.201 | 1.31 to 1.5 | 1.31 to 1.5 | > 1 | < 100
3 | Cn1cnnc1CC1(c2cccc(N3Cc4c(cc(N5CC(C(F)F)C5)cc4C(F)(F)F)C3=O)c2)COC1 [Example 594, 6-(3-(Difluoromethyl)azetidin-1-yl)-2-(3-(3-((4-methyl-4H-1,2,4-triazol-3-yl)methyl)oxetan-3-yl)phenyl)-4-(trifluoromethyl)isoindolin-1-one] | ≤ 100 | 2.51 to 5 | 5 to 7.5 | 0.051 to 0.1 | 1.01 to 1.3 | 1.01 to 1.3 | 0.801 to 1 | < 100
4 | Cn1cnnc1CC1(c2cccc(N3Cc4c(cc(OC(F)F)cc4C(F)(F)F)C3=O)c2)COC1 [Example 595, 6-(Difluoromethoxy)-2-(3-(3-((4-methyl-4H-1,2,4-triazol-3-yl)methyl)oxetan-3-yl)phenyl)-4-(trifluoromethyl)isoindolin-1-one] | ≤ 100 | 2.51 to 5 | 5 to 7.5 | 0.051 to 0.1 | 1.01 to 1.3 | 1.31 to 1.5 | 0.801 to 1 | < 100
5 | Cc1cc(C(=O)Nc2cccc(C3(Cc4nncn4C)COC3)c2)n2nccc2n1 [Example 596, 5-Methyl-N-(3-(3-((4-methyl-4H-1,2,4-triazol-3-yl)methyl)oxetan-3-yl)phenyl)pyrazolo[1,5-a]pyrimidine-7-carboxamide] | ≤ 300 | 1.01 to 2.5 | 1.01 to 2.5 | < 0.05 | 1.01 to 1.3 | 1.01 to 1.3 | 0.601 to 0.8 | 100 to 300
6 | Cc1cc(C(=O)Nc2cccc(C3(Cc4nncn4C)COC3)c2)n2nc(C(F)(F)F)cc2n1 [Example 598, 5-Methyl-N-(3-(3-((4-methyl-4H-1,2,4-triazol-3-yl)methyl)oxetan-3-yl)phenyl)-2-(trifluoromethyl)pyrazolo[1,5-a]pyrimidine-7-carboxamide] | ≤ 300 | 1.01 to 2.5 | 1.01 to 2.5 | < 0.05 | 1.01 to 1.3 | 1.01 to 1.3 | 0.601 to 0.8 | 100 to 300
7 | Cc1cnn2c(C(=O)Nc3cccc(C4(Cc5nncn5C)COC4)c3)cc(C(F)(F)F)nc12 [Example 599, 3-methyl-N-(3-(3-((4-methyl-4H-1,2,4-triazol-3-yl)methyl)oxetan-3-yl)phenyl)-5-(trifluoromethyl)pyrazolo[1,5-a]pyrimidine-7-carboxamide] | ≤ 1000 | < 1 | 1.01 to 2.5 | < 0.05 | 1.01 to 1.3 | 1.01 to 1.3 | 0.601 to 0.8 | 301 to 1000
8 | Cn1cnnc1CC1(c2cccc(N3Cc4c(cc(N5CC(C(F)(F)F)C5)cc4C(F)(F)F)C3=O)c2)COC1 [Example 600, 2-(3-(3-((4-methyl-4H-1,2,4-triazol-3-yl)methyl)oxetan-3-yl)phenyl)-4-(trifluoromethyl)-6-(3-(trifluoromethyl)azetidin-1-yl)isoindolin-1-one] | ≤ 100 | 2.51 to 5 | > 7.5 | 0.051 to 0.1 | 1.01 to 1.3 | 1.01 to 1.3 | > 1 | < 100
9 | Cn1cnnc1CC1(c2cccc(N3Cc4c(cc(N5CCC(C(F)F)C5)cc4C(F)(F)F)C3=O)c2)COC1 (stereo not drawn) [Example 601, 6-(3-(difluoromethyl)pyrrolidin-1-yl)-2-(3-(3-((4-methyl-4H-1,2,4-triazol-3-yl)methyl)oxetan-3-yl)phenyl)-4-(trifluoromethyl)isoindolin-1-one] | ≤ 100 | 1.01 to 2.5 | 2.51 to 5 | < 0.05 | 1.01 to 1.3 | 1.01 to 1.3 | 0.601 to 0.8 | < 100
10 | Cn1cnnc1CC1(c2cccc(N3Cc4c(cc(N5CC6(C5)CC(F)(F)C6)cc4C(F)(F)F)C3=O)c2)COC1 [Example 602, 6-(6,6-difluoro-2-azaspiro[3.3]heptan-2-yl)-2-(3-(3-((4-methyl-4H-1,2,4-triazol-3-yl)methyl)oxetan-3-yl)phenyl)-4-(trifluoromethyl)isoindolin-1-one] | ≤ 100 | 5 to 7.5 | > 7.5 | 0.101 to 0.15 | 1.01 to 1.3 | 1.31 to 1.5 | > 1 | < 100
11 | Cn1cnnc1CC1(c2cccc(N3Cc4c(cc(N5CC6(CCC6(F)F)C5)cc4C(F)(F)F)C3=O)c2)COC1 [Example 603, 6-(5,5-difluoro-2-azaspiro[3.3]heptan-2-yl)-2-(3-(3-((4-methyl-4H-1,2,4-triazol-3-yl)methyl)oxetan-3-yl)phenyl)-4-(trifluoromethyl)isoindolin-1-one] | ≤ 100 | 1.01 to 2.5 | 2.51 to 5 | < 0.05 | 1.01 to 1.3 | 1.01 to 1.3 | 0.601 to 0.8 | < 100
12 | Cn1cnnc1CC1(c2cccc(NC(=O)c3cc(C4CC4)nc4ccnn34)c2)COC1 [Example 604, 5-cyclopropyl-N-(3-(3-((4-methyl-4H-1,2,4-triazol-3-yl)methyl)oxetan-3-yl)phenyl)pyrazolo[1,5-a]pyrimidine-7-carboxamide] | ≤ 100 | 1.01 to 2.5 | 2.51 to 5 | < 0.05 | 1.01 to 1.3 | 1.01 to 1.3 | 0.601 to 0.8 | < 100
13 | Cn1cnnc1CC1(c2cccc(NC(=O)c3ccnc4ccnn34)c2)COC1 [Example 605, N-(3-(3-((4-methyl-4H-1,2,4-triazol-3-yl)methyl)oxetan-3-yl)phenyl)pyrazolo[1,5-a]pyrimidine-7-carboxamide] | ≤ 300 | 1.01 to 2.5 | 2.51 to 5 | < 0.05 | 1.01 to 1.3 | 1.01 to 1.3 | 0.601 to 0.8 | 100 to 300
14 | Cc1cc(C(=O)Nc2cccc(C3(Cc4nncn4C)COC3)c2)n2ncc(C)c2n1 [Example 606, 3,5-dimethyl-N-(3-(3-((4-methyl-4H-1,2,4-triazol-3-yl)methyl)oxetan-3-yl)phenyl)pyrazolo[1,5-a]pyrimidine-7-carboxamide] | ≤ 100 | 2.51 to 5 | 2.51 to 5 | 0.051 to 0.1 | 1.01 to 1.3 | 1.01 to 1.3 | 0.801 to 1 | < 100
15 | CC1CN(c2cc3c(c(C(F)(F)F)c2)CN(c2cccc(C4(Cc5nncn5C)COC4)c2)C3=O)C1 [Example 607, 2-(3-(3-((4-methyl-4H-1,2,4-triazol-3-yl)methyl)oxetan-3-yl)phenyl)-6-(3-methylazetidin-1-yl)-4-(trifluoromethyl)isoindolin-1-one] | ≤ 100 | 1.01 to 2.5 | 2.51 to 5 | 0.101 to 0.15 | 1.01 to 1.3 | 1.01 to 1.3 | 0.601 to 0.8 | < 100
